This is an account of results in PubChem BioAssay (NCI).

Each structure is given as a SMILES string.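 These data come from cells grown in 96-well plates and exposed to compound for 48 hours at five concentrations. TGI marks complete inhibition of growth.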

Holding throughout (assay): DTP human tumour cell line panel, 48 h
Assay [1] has as its system SNB-75 CNS.
Assay [2] relates to RPMI-8226 leukemia.
The subject of assay [3] is OVCAR-4 ovarian.
The subject of assay [4] is SK-MEL-28 melanoma.
The test system of assay [5] is OVCAR-5 ovarian.
Assay [6] deals with SK-MEL-5 melanoma.
In assay [7] the test system is NCI-H226 lung.
Assay [8] deals with HCT-116 colon.
Assay [9] has as its system K-562 leukemia.
Assay [10] has as its system KM12 colon.
In assay [11] the test system is M14 melanoma.
For assay [12], the system named is CAKI-1 renal.
In assay [13] the test system is SK-OV-3 ovarian.
Assay [14] has as its system LOX IMVI melanoma.

For `N#CCC(=O)Nc1ccccc1O`, the concentration for total growth inhibition (TGI) in assay [1], in assay [2], in assay [3], in assay [4], in [5] and in assay [6] was more than 100 µM each time. Moreover, the concentration for total growth inhibition (TGI) in [7], in assay [8], in assay [9], in assay [10], in assay [11] and in [12] was more than 100 µM in each case. Further, in assay [13], the TGI (in general, the concentration at which net growth stops) is more than 100 µM.

For `O=C1C2C3C=C4c5ccccc5N(c5ccccc5)C4([C@@H]2C(=O)N1c1ccc(F)cc1)[C@H]1C(=O)N(c2ccc(F)cc2)C(=O)[C@@H]31` (stereo not given in full), the TGI in [1], in assay [2], in assay [4], in assay [5], in assay [14] and in assay [7] was more than 100 µM in each case. The total growth inhibition concentration (TGI) in assay [9], in [10] and in assay [11] was more than 100 µM in each case.

`COc1cc2c(cc1OC)[C@H]1C(COC(=O)Nc3ccccc3)CN1CC2` (stereo not given in full): the TGI in assay [1] is 79.3 µM; in assay [2], more than 100 µM; in [3] it was more than 100 µM; in [4], more than 100 µM; in assay [5], more than 100 µM; in assay [14], more than 100 µM. Also, the total growth inhibition concentration (TGI) in [6], in assay [8], in assay [9], in assay [10], in [11] and in assay [12] was more than 100 µM in each case. The molecule also gave a concentration for total growth inhibition (TGI) in [13] of more than 100 µM.

For `COc1ccc(/C=C/c2nc(=S)[nH][nH]2)cc1OC`, the TGI in assay [1], in assay [2], in [3], in [4], in assay [5] and in [14] was more than 100 µM throughout. Also, the TGI in [6], in [7], in assay [8], in assay [9], in assay [11] and in assay [12] was more than 100 µM each time.

Take `CC1OC(CC2C=CCc3c(O)c4c(c(O)c32)C(=O)c2ccccc2C4=O)CC(NC(=O)C(F)(F)F)C1O` (stereo not given): the TGI in assay [1] is 5.8 µM; in [2], 28 µM; in assay [3], 11.7 µM; in assay [4], 16.1 µM; in assay [5] it was more than 100 µM; in [14], 20.6 µM. Besides, the concentration for total growth inhibition (TGI) in assay [6] was 27.3 µM; in assay [7], 31.6 µM; in [8] it was 11.4 µM; in [9] it was 20.6 µM; in assay [10] it was 61.4 µM; in assay [11], 16.1 µM. Moreover, the total growth inhibition concentration (TGI) in assay [12] came out at 20.7 µM; in assay [13], 24.6 µM.

Take `CN1C(=O)N(c2nc3ccccc3[nH]2)C(C)(C)C1=O`: the TGI in assay [1], in assay [2], in assay [3], in assay [4], in assay [14] and in assay [6] was more than 100 µM each time. Besides, the TGI in [7], in assay [8], in [9], in [10], in assay [11] and in [13] was more than 100 µM in each case.

Regarding `CCC(=O)CCC1=Nc2nnc(CCCCc3nnc4n3C(=O)C(CCC(=O)CC)=N4)n2C1=O`, the TGI in assay [1], in assay [2], in assay [3], in [4], in assay [5] and in assay [14] was more than 100 µM in each case. Further, the concentration for total growth inhibition (TGI) in assay [7], in [9], in assay [10], in assay [11], in assay [12] and in assay [13] was more than 100 µM in each case.

Consider `C/C(=N/N)c1sc(-c2nc(C)c(/C(C)=N\N)s2)nc1C`, for which the concentration for total growth inhibition (TGI) in assay [1] was more than 100 µM; in assay [2] it was more than 63.9 µM; in [3], more than 100 µM; in assay [4] it was more than 100 µM; in assay [5], more than 100 µM; in assay [14] it was more than 75.2 µM. The total growth inhibition concentration (TGI) in assay [6], in assay [7], in [8], in assay [9], in [10] and in [11] was more than 100 µM throughout. In addition, the TGI in [12] and in assay [13] was more than 100 µM in each case.

With `CCc1cccc(NC(=O)c2cc(/C=C/c3ccccc3)[nH]c(=S)n2)c1`, the total growth inhibition concentration (TGI) in assay [1], in [2], in assay [3], in [4], in assay [5] and in assay [6] was more than 100 µM in each case. The TGI in [7], in [8], in [9], in assay [10], in assay [11] and in [13] was more than 100 µM each time.

Consider `COC(=O)C(C#N)C1NC(=O)c2ccccc21` (stereo not given), for which the TGI in [1], in assay [2], in assay [3], in [4], in [5] and in assay [14] was more than 100 µM each time. In addition, the total growth inhibition concentration (TGI) in assay [6], in assay [7], in assay [8], in assay [9], in [10] and in assay [11] was more than 100 µM throughout. The same molecule displayed a TGI in [13] of more than 100 µM.

On to `O=C(O)CCSC(=O)Nc1ccccc1`, for which the TGI in [2], in assay [3], in assay [4], in assay [5], in [14] and in assay [7] was more than 100 µM in each case. The total growth inhibition concentration (TGI) in [8], in assay [9], in assay [10], in assay [11] and in [12] was more than 100 µM throughout.
